Experimental data reported in ChEMBL document CHEMBL3351422, “Discovery of N-substituted 7-azaindoline derivatives as potent, orally available M1 and M4 muscarinic acetylcholine receptors selective agonists” (Bioorg Med Chem Lett, 2014).

Legend:
[1] = target: Substance-P receptor (Homo sapiens) (UniProt P25103); assay: Inhibition of human NK1 receptor at 3 uM by radioligand binding assay
[2] = target: Gamma-aminobutyric acid type B receptor subunit 1 (Homo sapiens) (UniProt Q9UBS5); assay: Inhibition of human GABAB1A receptor at 3 uM by radioligand binding assay
Sequence of Gamma-aminobutyric acid type B receptor subunit 1 (Homo sapiens) (Q9UBS5 whole entry): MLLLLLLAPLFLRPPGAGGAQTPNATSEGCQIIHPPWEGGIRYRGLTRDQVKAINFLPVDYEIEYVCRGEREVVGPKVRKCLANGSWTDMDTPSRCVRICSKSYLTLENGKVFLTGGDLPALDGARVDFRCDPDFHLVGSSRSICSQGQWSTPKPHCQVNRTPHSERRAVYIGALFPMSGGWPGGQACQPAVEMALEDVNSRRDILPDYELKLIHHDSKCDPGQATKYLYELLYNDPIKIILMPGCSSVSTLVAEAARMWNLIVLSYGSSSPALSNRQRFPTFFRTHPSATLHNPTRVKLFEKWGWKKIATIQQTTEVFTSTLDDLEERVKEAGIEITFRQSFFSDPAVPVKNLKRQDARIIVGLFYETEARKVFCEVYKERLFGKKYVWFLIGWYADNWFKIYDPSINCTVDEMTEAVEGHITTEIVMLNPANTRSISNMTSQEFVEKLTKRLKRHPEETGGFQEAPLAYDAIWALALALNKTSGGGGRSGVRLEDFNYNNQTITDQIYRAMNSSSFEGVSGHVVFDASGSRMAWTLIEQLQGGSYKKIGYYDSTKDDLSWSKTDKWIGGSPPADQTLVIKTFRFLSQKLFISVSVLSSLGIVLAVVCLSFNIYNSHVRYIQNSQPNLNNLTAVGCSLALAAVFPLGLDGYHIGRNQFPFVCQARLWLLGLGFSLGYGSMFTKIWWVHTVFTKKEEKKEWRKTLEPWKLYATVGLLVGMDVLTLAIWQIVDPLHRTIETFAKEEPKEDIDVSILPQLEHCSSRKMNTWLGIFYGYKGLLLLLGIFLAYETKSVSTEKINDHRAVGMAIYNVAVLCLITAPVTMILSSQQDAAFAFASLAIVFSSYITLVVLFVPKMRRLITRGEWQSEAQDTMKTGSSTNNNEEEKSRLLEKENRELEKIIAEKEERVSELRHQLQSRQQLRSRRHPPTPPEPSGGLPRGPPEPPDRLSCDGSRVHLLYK

[3] = target: 5-hydroxytryptamine receptor 3A (Homo sapiens) (UniProt P46098); assay: Inhibition of human 5-HT3 receptor at 3 uM by radioligand binding assay
Sequence of 5-hydroxytryptamine receptor 3A (Homo sapiens) (P46098 whole entry): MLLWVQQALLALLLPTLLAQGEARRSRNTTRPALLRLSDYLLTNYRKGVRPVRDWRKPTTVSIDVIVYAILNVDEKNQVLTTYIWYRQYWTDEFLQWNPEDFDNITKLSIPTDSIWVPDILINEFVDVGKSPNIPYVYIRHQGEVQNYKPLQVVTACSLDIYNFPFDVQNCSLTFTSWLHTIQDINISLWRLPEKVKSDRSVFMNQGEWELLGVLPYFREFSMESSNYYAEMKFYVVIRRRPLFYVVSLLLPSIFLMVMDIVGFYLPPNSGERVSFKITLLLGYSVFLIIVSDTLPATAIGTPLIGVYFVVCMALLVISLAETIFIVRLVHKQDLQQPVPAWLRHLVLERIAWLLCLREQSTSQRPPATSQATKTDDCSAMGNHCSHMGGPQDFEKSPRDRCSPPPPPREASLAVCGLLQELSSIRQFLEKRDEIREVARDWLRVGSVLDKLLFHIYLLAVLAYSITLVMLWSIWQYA

[4] = target: L-type calcium channel, dihydropyridine binding site (Rattus norvegicus, UniProt P22002+P27732+Q02485); assay: Inhibition of rat L-type calcium channel dihydropyridine binding site at 3 uM by radioligand binding assay; type: protein assay
[5] = target: T1, Muscarinic acetylcholine receptor M4 (Homo sapiens) (UniProt P08173); assay: Intrinsic activity at muscarinic M4 receptor (unknown origin) by calcium mobilization assay; type: functional
T1 sequence (whole entry): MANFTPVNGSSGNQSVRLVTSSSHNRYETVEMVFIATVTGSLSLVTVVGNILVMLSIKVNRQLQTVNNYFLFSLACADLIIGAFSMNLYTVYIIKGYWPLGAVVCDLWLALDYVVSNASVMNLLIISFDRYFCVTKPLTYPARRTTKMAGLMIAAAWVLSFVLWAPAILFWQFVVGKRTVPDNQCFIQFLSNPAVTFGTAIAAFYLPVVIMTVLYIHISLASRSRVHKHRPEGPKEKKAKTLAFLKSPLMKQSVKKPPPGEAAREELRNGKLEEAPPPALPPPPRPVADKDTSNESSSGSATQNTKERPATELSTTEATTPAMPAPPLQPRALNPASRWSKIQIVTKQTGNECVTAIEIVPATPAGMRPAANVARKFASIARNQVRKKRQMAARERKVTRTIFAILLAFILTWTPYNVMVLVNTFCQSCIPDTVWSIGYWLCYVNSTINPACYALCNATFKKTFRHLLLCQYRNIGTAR

[6] = Clearance in monkey at 0.25 mg/kg, iv and 2.5 mg/kg, po; type: ADME, organism-based, Macaca mulatta; settings: rhesus monkey, in vivo
[7] = Cmax in rat at 0.25 mg/kg, iv and 2.5 mg/kg, po; type: ADME, organism-based; settings: in vivo
[8] = target: Sodium-dependent dopamine transporter (Homo sapiens) (UniProt Q01959); assay: Inhibition of human DAT at 3 uM by radioligand binding assay
[9] = target: Endothelin-1 receptor (Homo sapiens) (UniProt P25101); assay: Inhibition of human ETA receptor at 3 uM by radioligand binding assay
[10] = Volume of distribution at steady state in rat at 0.25 mg/kg, iv and 2.5 mg/kg, po; type: ADME, organism-based; settings: in vivo, read-out: Vdss
[11] = target: Voltage-gated inwardly rectifying potassium channel KCNH2 (Homo sapiens, UniProt Q12809); assay: Inhibition of human ERG channel
[12] = target: Muscarinic acetylcholine receptor M3 (Homo sapiens) (UniProt P20309); assay: Agonist activity at muscarinic M3 receptor (unknown origin) at 0.3 uM by calcium mobilization assay; type: functional
Sequence of Muscarinic acetylcholine receptor M3 (Homo sapiens) (P20309 whole entry, looked up): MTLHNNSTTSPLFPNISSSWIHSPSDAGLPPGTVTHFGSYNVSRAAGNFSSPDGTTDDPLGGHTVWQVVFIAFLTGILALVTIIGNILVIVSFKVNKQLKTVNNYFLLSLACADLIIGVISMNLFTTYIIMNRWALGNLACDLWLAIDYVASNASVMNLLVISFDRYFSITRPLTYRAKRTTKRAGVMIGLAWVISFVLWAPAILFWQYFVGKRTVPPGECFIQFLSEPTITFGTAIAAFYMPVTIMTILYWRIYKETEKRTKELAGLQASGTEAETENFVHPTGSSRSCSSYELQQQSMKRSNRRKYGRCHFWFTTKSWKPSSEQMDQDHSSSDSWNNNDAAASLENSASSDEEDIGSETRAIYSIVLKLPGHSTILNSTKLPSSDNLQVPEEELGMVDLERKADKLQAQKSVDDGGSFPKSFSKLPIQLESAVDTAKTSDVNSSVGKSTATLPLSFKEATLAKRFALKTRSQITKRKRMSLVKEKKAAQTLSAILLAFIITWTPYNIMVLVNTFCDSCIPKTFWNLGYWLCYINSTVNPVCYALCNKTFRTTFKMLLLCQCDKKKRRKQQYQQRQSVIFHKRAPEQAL

[13] = target: Sodium-dependent serotonin transporter (Homo sapiens) (UniProt P31645); assay: Inhibition of human SERT at 3 uM by radioligand binding assay
[14] = target: Neuropeptide Y receptor type 1 (Homo sapiens) (UniProt P25929); assay: Inhibition of human neuropeptide YY1 receptor at 3 uM by radioligand binding assay
Sequence of Neuropeptide Y receptor type 1 (Homo sapiens) (P25929 whole entry): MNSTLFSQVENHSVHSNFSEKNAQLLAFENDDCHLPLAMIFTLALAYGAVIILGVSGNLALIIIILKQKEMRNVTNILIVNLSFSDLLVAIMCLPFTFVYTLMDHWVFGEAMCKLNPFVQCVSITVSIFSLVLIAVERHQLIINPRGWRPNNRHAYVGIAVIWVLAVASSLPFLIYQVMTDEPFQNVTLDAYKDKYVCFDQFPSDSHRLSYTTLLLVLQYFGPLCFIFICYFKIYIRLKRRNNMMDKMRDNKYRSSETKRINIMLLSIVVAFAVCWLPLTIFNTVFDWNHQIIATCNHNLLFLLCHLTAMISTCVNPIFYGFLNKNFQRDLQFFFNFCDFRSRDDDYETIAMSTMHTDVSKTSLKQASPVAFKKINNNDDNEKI

[15] = Oral bioavailability in monkey at 2.5 mg/kg; type: ADME, organism-based, Macaca mulatta; settings: rhesus monkey, in vivo
[16] = target: Adrenergic receptor alpha-1 (Rattus norvegicus) (UniProt P15823+P23944+P43140); assay: Inhibition of rat alpha1 adrenergic receptor at 3 uM by radioligand binding assay
[17] = target: Alpha-1D adrenergic receptor (Homo sapiens) (UniProt P25100); assay: Inhibition of human alpha1D adrenergic receptor at 3 uM by radioligand binding assay
[18] = target: Muscarinic acetylcholine receptor M3 (Homo sapiens) (UniProt P20309); assay: Intrinsic activity at muscarinic M3 receptor (unknown origin) at 10 uM by calcium mobilization assay; type: functional
[19] = target: 5-hydroxytryptamine receptor 1A (Homo sapiens) (UniProt P08908); assay: Inhibition of human 5-HT1A receptor at 3 uM by radioligand binding assay
Sequence of 5-hydroxytryptamine receptor 1A (Homo sapiens) (P08908 whole entry): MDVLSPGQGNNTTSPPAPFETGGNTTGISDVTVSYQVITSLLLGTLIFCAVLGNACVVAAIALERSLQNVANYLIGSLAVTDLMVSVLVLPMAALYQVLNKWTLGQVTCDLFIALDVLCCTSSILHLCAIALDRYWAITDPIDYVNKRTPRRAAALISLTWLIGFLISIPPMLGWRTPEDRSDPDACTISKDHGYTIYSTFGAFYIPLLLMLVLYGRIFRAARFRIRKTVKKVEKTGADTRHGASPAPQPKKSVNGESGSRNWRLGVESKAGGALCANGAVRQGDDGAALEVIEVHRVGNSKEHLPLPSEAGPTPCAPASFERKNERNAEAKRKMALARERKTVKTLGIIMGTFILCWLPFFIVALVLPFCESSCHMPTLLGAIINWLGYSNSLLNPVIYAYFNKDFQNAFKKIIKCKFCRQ

[20] = target: Histamine H2 receptor (Homo sapiens) (UniProt P25021); assay: Inhibition of human histamine H2 receptor at 3 uM by radioligand binding assay
Sequence of Histamine H2 receptor (Homo sapiens) (P25021 whole entry): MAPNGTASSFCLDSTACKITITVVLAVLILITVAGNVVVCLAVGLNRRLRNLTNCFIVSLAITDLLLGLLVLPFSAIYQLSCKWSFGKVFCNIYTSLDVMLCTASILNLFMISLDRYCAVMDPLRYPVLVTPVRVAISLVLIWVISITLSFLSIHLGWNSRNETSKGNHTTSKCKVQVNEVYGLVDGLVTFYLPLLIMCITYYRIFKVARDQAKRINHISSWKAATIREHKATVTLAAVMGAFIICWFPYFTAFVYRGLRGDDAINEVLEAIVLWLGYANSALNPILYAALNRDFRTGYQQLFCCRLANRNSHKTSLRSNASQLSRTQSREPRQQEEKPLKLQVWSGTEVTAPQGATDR

[21] = target: Sigma non-opioid intracellular receptor 1 (Homo sapiens) (UniProt Q99720); assay: Inhibition of human sigma1 receptor at 3 uM by radioligand binding assay
Sequence of Sigma non-opioid intracellular receptor 1 (Homo sapiens) (Q99720 whole entry): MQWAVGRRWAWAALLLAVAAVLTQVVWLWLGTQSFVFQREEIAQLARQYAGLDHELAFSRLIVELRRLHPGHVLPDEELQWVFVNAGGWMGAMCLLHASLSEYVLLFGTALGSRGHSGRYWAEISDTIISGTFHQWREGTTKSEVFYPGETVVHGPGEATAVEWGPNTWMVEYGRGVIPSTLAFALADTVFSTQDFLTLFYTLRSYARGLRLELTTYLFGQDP

[22] = Half life in monkey at 0.25 mg/kg, iv and 2.5 mg/kg, po; type: ADME, organism-based, Macaca mulatta; settings: rhesus monkey, in vivo
[23] = target: hERG (KCNH2) (Homo sapiens, UniProt Q12809); assay: Inhibition of human ERG channel at 3 uM by radioligand binding assay
[24] = Clearance in rat at 0.25 mg/kg, iv and 2.5 mg/kg, po; type: ADME, organism-based; settings: in vivo
[25] = target: Phosphodiesterase 4 (Homo sapiens) (UniProt P27815+Q08499+Q07343+Q08493); assay: Inhibition of human PDE4 at 3 uM by radioligand binding assay; type: protein assay
[26] = target: Glutamate NMDA receptor (Rattus norvegicus) (UniProt P35439+Q00959+Q00960+Q00961+Q62645+Q8VHN2+Q9R1M7); assay: Inhibition of rat NMDA receptor agonist binding site at 3 uM by radioligand binding assay; type: protein-complex assay
[27] = species on record: Rattus norvegicus; assay: Inhibition of rat N-type calcium channel at 3 uM by radioligand binding assay
[28] = species on record: Homo sapiens; assay: Inhibition of human nicotinic acetylcholine receptor at 3 uM by radioligand binding assay
[29] = target: Delta-type opioid receptor (Homo sapiens) (UniProt P41143); assay: Inhibition of human delta opioid receptor at 3 uM by radioligand binding assay
Sequence of Delta-type opioid receptor (Homo sapiens) (P41143 whole entry): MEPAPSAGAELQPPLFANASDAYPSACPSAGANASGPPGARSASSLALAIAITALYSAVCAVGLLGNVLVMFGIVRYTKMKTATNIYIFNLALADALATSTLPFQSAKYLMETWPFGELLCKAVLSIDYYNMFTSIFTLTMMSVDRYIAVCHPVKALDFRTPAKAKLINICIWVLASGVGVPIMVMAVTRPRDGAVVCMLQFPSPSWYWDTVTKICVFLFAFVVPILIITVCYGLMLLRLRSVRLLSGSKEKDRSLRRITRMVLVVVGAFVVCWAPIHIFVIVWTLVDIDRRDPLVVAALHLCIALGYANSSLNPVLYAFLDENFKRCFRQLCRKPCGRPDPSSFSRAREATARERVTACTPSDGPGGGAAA

[30] = target: Acetylcholinesterase (Homo sapiens) (UniProt P22303); assay: Inhibition of human acetylcholinesterase at 3 uM by radioligand binding assay
Sequence of Acetylcholinesterase (Homo sapiens) (P22303 whole entry): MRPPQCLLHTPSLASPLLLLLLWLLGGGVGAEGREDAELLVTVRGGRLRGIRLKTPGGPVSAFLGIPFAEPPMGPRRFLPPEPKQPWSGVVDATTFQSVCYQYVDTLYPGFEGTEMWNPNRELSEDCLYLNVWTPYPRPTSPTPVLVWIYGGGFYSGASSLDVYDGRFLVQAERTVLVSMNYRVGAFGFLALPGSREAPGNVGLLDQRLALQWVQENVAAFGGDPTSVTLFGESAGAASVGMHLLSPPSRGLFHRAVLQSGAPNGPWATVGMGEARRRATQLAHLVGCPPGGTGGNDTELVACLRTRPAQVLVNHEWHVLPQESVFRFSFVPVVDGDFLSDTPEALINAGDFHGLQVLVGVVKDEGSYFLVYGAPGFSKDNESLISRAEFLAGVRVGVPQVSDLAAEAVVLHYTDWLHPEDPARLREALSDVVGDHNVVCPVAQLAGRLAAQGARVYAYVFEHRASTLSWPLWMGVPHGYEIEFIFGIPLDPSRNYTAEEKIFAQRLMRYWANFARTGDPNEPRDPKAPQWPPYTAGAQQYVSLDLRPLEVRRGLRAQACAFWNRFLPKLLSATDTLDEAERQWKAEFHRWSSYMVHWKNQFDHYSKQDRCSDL

[31] = target: T2, Muscarinic acetylcholine receptor M2 (Homo sapiens) (UniProt P08172); assay: Agonist activity at muscarinic M2 receptor (unknown origin) at 0.3 uM by calcium mobilization assay; type: functional
T2 sequence (whole entry): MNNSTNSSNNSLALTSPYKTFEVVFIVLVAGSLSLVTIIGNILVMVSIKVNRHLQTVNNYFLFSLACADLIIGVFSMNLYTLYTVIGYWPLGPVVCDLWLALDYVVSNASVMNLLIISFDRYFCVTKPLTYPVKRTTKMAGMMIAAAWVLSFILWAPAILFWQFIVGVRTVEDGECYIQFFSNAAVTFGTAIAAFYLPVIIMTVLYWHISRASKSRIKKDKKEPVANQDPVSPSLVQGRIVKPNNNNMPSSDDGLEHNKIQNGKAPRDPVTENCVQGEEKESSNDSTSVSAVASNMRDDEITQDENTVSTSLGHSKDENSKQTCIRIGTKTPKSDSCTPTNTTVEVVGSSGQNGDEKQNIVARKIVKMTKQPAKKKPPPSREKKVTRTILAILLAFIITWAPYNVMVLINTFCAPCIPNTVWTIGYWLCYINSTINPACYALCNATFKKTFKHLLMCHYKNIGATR

[32] = species on record: Rattus norvegicus; assay: Inhibition of rat purinergic P2Y receptor at 3 uM by radioligand binding assay

Sequence of Substance-P receptor (Homo sapiens) (P25103 whole entry): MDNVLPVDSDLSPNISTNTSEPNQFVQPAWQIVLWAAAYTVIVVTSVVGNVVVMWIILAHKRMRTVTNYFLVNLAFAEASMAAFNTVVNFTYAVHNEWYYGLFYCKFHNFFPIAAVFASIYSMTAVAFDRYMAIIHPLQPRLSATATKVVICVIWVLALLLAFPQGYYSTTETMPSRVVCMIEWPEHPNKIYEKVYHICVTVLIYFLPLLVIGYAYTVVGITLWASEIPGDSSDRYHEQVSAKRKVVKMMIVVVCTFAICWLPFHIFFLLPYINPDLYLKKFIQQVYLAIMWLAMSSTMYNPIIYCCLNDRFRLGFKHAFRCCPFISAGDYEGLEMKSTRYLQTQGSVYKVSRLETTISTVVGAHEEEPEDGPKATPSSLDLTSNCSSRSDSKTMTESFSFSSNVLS

Compound `CCOC(=O)N1CCC(CN2CCC3(CC2)CN(C(=O)N(C)C)c2ncccc23)CC1.O=C(O)/C=C/C(=O)O` has an inhibition [1] of 2%, an inhibition [2] of 2% and an inhibition [3] of -10%. It also gave an inhibition at 3 µM [4] of 11%, an Intrinsic activity [5] of 108% and a clearance [6] of 0.99 L/h/kg. The Cmax [7] was 0.207 µg/mL, the inhibition [8] was -2% and the inhibition [9] was 10%. For the same compound, the Vd [10] was 1.8 L/kg, the IC50 [11] was greater than 10 µM and the Activity [12] was 2%. For the same compound, the inhibition [13] was 3%, the inhibition [14] was -2% and the bioavailability [15] was 39.8%. It also gave an inhibition [16] of 21%, an inhibition [17] of 10% and an Intrinsic activity [18] of 2%. It also gave an inhibition [19] of -6%, an inhibition [20] of 4% and an inhibition [21] of 57%. For the same compound, the half-life [22] was 4.76 h, the inhibition at 3 µM [23] was 0% and the clearance [24] was 1.7 L/h/kg. For the same compound, the inhibition [25] was -5%, the inhibition [26] was 4% and the inhibition [27] was 4%. For the same compound, the inhibition [28] was 9%, the inhibition [29] was -1% and the inhibition [30] was 5%. For the same compound, the Activity [31] was 10% and the inhibition [32] was 9%.
